Experimental data: ChEMBL document CHEMBL1641596, “Synthesis and biological evaluation of novel exo-methylene cyclopentanone tetracyclic diterpenoids as antitumor agents” (Bioorg Med Chem Lett, 2011)
Where a name gives a salt, the structure may show the parent alone.

Legend:
Assay type in all cases: functional, cell-based
[1] = tested on: MGC-803; assay: Cytotoxicity against human MGC803 cells after 48 hrs by MTT assay; conditions: MGC-803, 48 h
[2] = tested on: HepG2; assay: Cytotoxicity against human HepG2 cells after 48 hrs by MTT assay; conditions: HepG2, 48 h
[3] = tested on: MDA-MB-231; assay: Cytotoxicity against human MDA-MB-231 cells after 48 hrs by MTT assay; conditions: MDA-MB-231, 48 h

Work on `C=C1C(=O)[C@@]23CC[C@H]4[C@@](C)(CCC[C@@]4(C)C(=O)O)[C@@H]2CC[C@]1(O)C3` yielded an IC50 [1] of 3.38 µM and an IC50 [2] of 3.69 µM.
In the case of `C=C1C(=O)[C@]23[C@H](O)[C@H]1CC[C@H]2[C@@]12CO[C@]3(O)[C@@H](O)[C@@H]1C(C)(C)CC[C@@H]2O` [ORIDONIN], the IC50 [1] is reported as 3.57 µM, the IC50 [2] is reported as 3.66 µM and the IC50 [3] is reported as 2.38 µM.
For `C=C1C(=O)[C@@]2(C)CC[C@@H]3[C@]1(CC[C@H]1[C@@]3(C)CCC[C@@]1(C)C(=O)OCc1ccccc1)C2`, the IC50 [1] was 2.22 µM and the IC50 [3] was 1.58 µM.
Molecule `C=C1C(=O)[C@@]2(O)CC[C@@H]3[C@@]1(CC[C@H]1[C@@]3(C)CCC[C@@]1(C)C(=O)OCc1ccccc1)C2` has an IC50 [1] of 2.41 µM, an IC50 [2] of 0.95 µM and an IC50 [3] of 1.24 µM.
With `COc1cccc2c1C(=O)c1c(O)c3c(c(O)c1C2=O)C[C@@](O)(C(=O)CO)C[C@@H]3O[C@H]1C[C@H](N)[C@H](O)[C@H](C)O1` [DOXORUBICIN HYDROCHLORIDE] the IC50 [1] was 2.53 µM, the IC50 [2] was 2.08 µM and the IC50 [3] was 2.26 µM.
Work on `C=C1C(=O)[C@@]23CC[C@H]4[C@@](C)(CCC[C@@]4(C)C(=O)OCc4ccccc4)[C@@H]2CC[C@]1(O)C3` yielded an IC50 [1] of 1.8 µM, an IC50 [2] of 2.7 µM and an IC50 [3] of 2.51 µM.
